Test results taken from ChEMBL document CHEMBL3885861, “Open TG-GATES”.

Species: Rattus norvegicus
Test: Open TG-GATES - Regimen: Single
Type: toxicity, organism-based, Sprague-Dawley
Parameters: regimen Single, gender Male, age 6 weeks
Conditions: in vivo, iv, 2000 mg/kg, route intravenous injection, dose level High; for APTT / Bas / Eos / Fbg / Hb / Ht / Lym / MCH / MCHC / MCV / Mono / PT / Plat / RBC / Ret / WBC: tissue Blood; for KIDNEY_L / KIDNEY_R / KIDNEY_TOTAL: tissue Kidney; for LIVER: tissue Liver; for ALP / ALT / AST / BUN / CRE / Ca / Cl / DBIL / GLC / IP / K / LDH / Na / PL / RALB / TBIL / TC / TG / TP / gamma-GTP: tissue Plasma

Compound `CC(=O)OCC1=C(C(=O)O)N2C(=O)[C@@H](NC(=O)Cc3cccs3)[C@H]2SC1` [CEPHALOTHIN] has a TERMINAL_BW (3 h) of 214.8 g, an APTT (3 h) of 23.6 s and a Bas (3 h) of 0%. It also gave an Eos (3 h) of 0.4%, a Fbg (3 h) of 277.6 mg/dL and a Hb (3 h) of 13.6 g/dL. For the same compound, the Ht (3 h) was 39.4%, the Lym (3 h) was 66.4% and the MCH (3 h) was 21.1 pg. For the same compound, the MCHC (3 h) was 34.5%, the MCV (3 h) was 61.3 fL and the Mono (3 h) was 3.6%. It also gave a PT (3 h) of 16.6 s, a Plat (3 h) of 131.7 x10_4/uL and an RBC (3 h) of 644 x10_4/ul. The Ret (3 h) was 6.1%, the WBC (3 h) was 63.2 x10_2/uL and the KIDNEY_L (3 h) was 0.9 g. For the same compound, the KIDNEY_R (3 h) was 1 g, the KIDNEY_TOTAL (3 h) was 1.9 g and the LIVER (3 h) was 9.6 g. The ALP (3 h) was 1568.4 IU/L, the ALT (3 h) was 46.4 IU/L and the AST (3 h) was 94.6 IU/L. For the same compound, the BUN (3 h) was 12.2 mg/dL, the CRE (3 h) was 0.2 mg/dL and the Ca (3 h) was 10.7 mg/dL. The Cl (3 h) was 104.4 meq/L, the DBIL (3 h) was 0.002 mg/dL and the GLC (3 h) was 173.2 mg/dL. The IP (3 h) was 9.3 mg/dL, the K (3 h) was 4.2 meq/L and the LDH (3 h) was 214.4 IU/L. It also gave a Na (3 h) of 141.8 meq/L, a PL (3 h) of 136 mg/dL and an RALB (3 h) of 2.9 g/dL. It also gave a TBIL (3 h) of 0.016 mg/dL, a TC (3 h) of 68.2 mg/dL and a TG (3 h) of 79.8 mg/dL. For the same compound, the TP (3 h) was 5.4 g/dL, the gamma-GTP (3 h) was 1.2 IU/L and the TERMINAL_BW (6 h) was 214.6 g. The APTT (6 h) was 23 s, the Bas (6 h) was 0% and the Eos (6 h) was 0.4%. For the same compound, the Fbg (6 h) was 279.2 mg/dL, the Hb (6 h) was 13.4 g/dL and the Ht (6 h) was 39.1%. For the same compound, the Lym (6 h) was 67.4%, the MCH (6 h) was 21 pg and the MCHC (6 h) was 34.3%. For the same compound, the MCV (6 h) was 61.1 fL, the Mono (6 h) was 3% and the PT (6 h) was 16.3 s. For the same compound, the Plat (6 h) was 121.3 x10_4/uL, the RBC (6 h) was 639.8 x10_4/ul and the Ret (6 h) was 5.9%. The WBC (6 h) was 81.2 x10_2/uL, the KIDNEY_L (6 h) was 1 g and the KIDNEY_R (6 h) was 1.1 g. It also gave a KIDNEY_TOTAL (6 h) of 2.1 g, an LIVER (6 h) of 9.2 g and an ALP (6 h) of 1347.4 IU/L. For the same compound, the ALT (6 h) was 42.6 IU/L, the AST (6 h) was 95.8 IU/L and the BUN (6 h) was 12 mg/dL. For the same compound, the CRE (6 h) was 0.1 mg/dL, the Ca (6 h) was 10.6 mg/dL and the Cl (6 h) was 105 meq/L. For the same compound, the DBIL (6 h) was 0.002 mg/dL, the GLC (6 h) was 171.6 mg/dL and the IP (6 h) was 9.4 mg/dL. The K (6 h) was 4.4 meq/L, the LDH (6 h) was 182.6 IU/L and the Na (6 h) was 141.2 meq/L. For the same compound, the PL (6 h) was 145 mg/dL, the RALB (6 h) was 2.9 g/dL and the TBIL (6 h) was 0.022 mg/dL. For the same compound, the TC (6 h) was 73.6 mg/dL, the TG (6 h) was 136.6 mg/dL and the TP (6 h) was 5.3 g/dL. For the same compound, the gamma-GTP (6 h) was 1.2 IU/L, the TERMINAL_BW (9 h) was 210.5 g and the APTT (9 h) was 21.8 s. It also gave a Bas (9 h) of 0%, an Eos (9 h) of 1% and a Fbg (9 h) of 290.8 mg/dL. The Hb (9 h) was 13.4 g/dL, the Ht (9 h) was 39.2% and the Lym (9 h) was 70.8%. The MCH (9 h) was 21 pg, the MCHC (9 h) was 34.2% and the MCV (9 h) was 61.4 fL. For the same compound, the Mono (9 h) was 2.8%, the PT (9 h) was 16.3 s and the Plat (9 h) was 122.1 x10_4/uL. For the same compound, the RBC (9 h) was 638.8 x10_4/ul, the Ret (9 h) was 5.8% and the WBC (9 h) was 69.5 x10_2/uL. For the same compound, the KIDNEY_L (9 h) was 1 g, the KIDNEY_R (9 h) was 1 g and the KIDNEY_TOTAL (9 h) was 2 g. For the same compound, the LIVER (9 h) was 8.6 g, the ALP (9 h) was 1382 IU/L and the ALT (9 h) was 39.4 IU/L. The AST (9 h) was 90 IU/L, the BUN (9 h) was 10.4 mg/dL and the CRE (9 h) was 0.1 mg/dL. It also gave a Ca (9 h) of 10.5 mg/dL, a Cl (9 h) of 106 meq/L and a DBIL (9 h) of 0 mg/dL. It also gave a GLC (9 h) of 176 mg/dL, an IP (9 h) of 9.3 mg/dL and a K (9 h) of 4.5 meq/L. The LDH (9 h) was 162.6 IU/L, the Na (9 h) was 141 meq/L and the PL (9 h) was 134.4 mg/dL. For the same compound, the RALB (9 h) was 2.9 g/dL, the TBIL (9 h) was 0.028 mg/dL and the TC (9 h) was 66.4 mg/dL. For the same compound, the TG (9 h) was 101.2 mg/dL, the TP (9 h) was 5.3 g/dL and the gamma-GTP (9 h) was 1.2 IU/L. The TERMINAL_BW (24 h) was 223.7 g, the APTT (24 h) was 21.3 s and the Bas (24 h) was 0%. The Eos (24 h) was 0.8%, the Fbg (24 h) was 339.2 mg/dL and the Hb (24 h) was 13.5 g/dL. The Ht (24 h) was 38.6%, the Lym (24 h) was 83.6% and the MCH (24 h) was 20.4 pg. It also gave an MCHC (24 h) of 34.8%, an MCV (24 h) of 58.4 fL and a Mono (24 h) of 2.4%. For the same compound, the PT (24 h) was 16.2 s, the Plat (24 h) was 117.9 x10_4/uL and the RBC (24 h) was 661.4 x10_4/ul. It also gave a Ret (24 h) of 5.4%, a WBC (24 h) of 77.7 x10_2/uL and a KIDNEY_L (24 h) of 1 g. The KIDNEY_R (24 h) was 1 g, the KIDNEY_TOTAL (24 h) was 2 g and the LIVER (24 h) was 9 g. For the same compound, the ALP (24 h) was 1511.8 IU/L, the ALT (24 h) was 44.8 IU/L and the AST (24 h) was 78.6 IU/L. The BUN (24 h) was 15.6 mg/dL, the CRE (24 h) was 0.2 mg/dL and the Ca (24 h) was 10.6 mg/dL. It also gave a Cl (24 h) of 106 meq/L, a DBIL (24 h) of 0.004 mg/dL and a GLC (24 h) of 183 mg/dL. It also gave an IP (24 h) of 7.3 mg/dL, a K (24 h) of 4.4 meq/L and an LDH (24 h) of 162 IU/L. For the same compound, the Na (24 h) was 142.2 meq/L, the PL (24 h) was 143.8 mg/dL and the RALB (24 h) was 3.1 g/dL. For the same compound, the TBIL (24 h) was 0.02 mg/dL, the TC (24 h) was 74.6 mg/dL and the TG (24 h) was 76 mg/dL. For the same compound, the TP (24 h) was 5.7 g/dL and the gamma-GTP (24 h) was 1.6 IU/L.
